The source of these data is patent EP2072509A1, “1-Aryl-1H-quinoline-2-ones: process for their production and their use as anti-inflammatory agents” (Bayer Schering Pharma Aktiengesellschaft, priority 2007, dated 2009).

Where only a bound is given, the exact number is not on record here.

The test system of assay [1] is cytokine IL-8. Briefly: Inhibition of LPS-triggered IL-8 secretion in THP-1 cells (ELISA of supernatant). Type of assay: cell-based. The note with it: Homo sapiens. How it is done: The concentration of the cytokines was determined in the supernatant by means of commercially available ELISA kits.
For orientation: ELISA stands for enzyme-linked immunosorbent assay.

Assay [2] deals with T1, glucocorticoid receptor (GR) (Homo sapiens, UniProt P04150).
T1 construct: made in house; host or cells: Sf9 cells infected with recombinant baculovirus (cytosol preparation)
T1 sequence (P04150 1-777): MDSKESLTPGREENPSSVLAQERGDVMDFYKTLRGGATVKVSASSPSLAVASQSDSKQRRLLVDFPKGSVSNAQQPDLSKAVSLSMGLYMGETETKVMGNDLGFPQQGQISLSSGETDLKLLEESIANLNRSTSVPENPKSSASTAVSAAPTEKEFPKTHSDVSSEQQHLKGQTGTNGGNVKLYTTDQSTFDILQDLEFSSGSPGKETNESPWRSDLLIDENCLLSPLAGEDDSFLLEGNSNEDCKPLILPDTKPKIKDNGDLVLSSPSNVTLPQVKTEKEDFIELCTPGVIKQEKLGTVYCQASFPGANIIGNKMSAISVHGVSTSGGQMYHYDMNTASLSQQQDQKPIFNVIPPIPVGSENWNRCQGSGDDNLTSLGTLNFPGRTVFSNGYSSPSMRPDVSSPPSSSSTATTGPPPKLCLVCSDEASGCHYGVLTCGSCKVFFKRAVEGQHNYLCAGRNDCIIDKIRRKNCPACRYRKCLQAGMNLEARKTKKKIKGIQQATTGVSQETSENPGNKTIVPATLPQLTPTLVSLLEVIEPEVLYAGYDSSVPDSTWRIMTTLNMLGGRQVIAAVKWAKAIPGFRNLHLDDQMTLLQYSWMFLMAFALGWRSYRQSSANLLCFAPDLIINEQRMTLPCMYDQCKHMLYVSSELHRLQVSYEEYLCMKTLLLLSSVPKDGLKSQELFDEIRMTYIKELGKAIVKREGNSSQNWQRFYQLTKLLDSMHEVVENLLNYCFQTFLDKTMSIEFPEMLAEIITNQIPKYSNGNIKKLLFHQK
Briefly: Binding to recombinantly produced glucocorticoid receptor (cytosol of baculovirus-infected Sf9 cells, [3H]-dexamethasone as reference). The note with it: recombinant GR, Sf9 cytosol preparations. The source says: (§1) The binding of the substances to the glucocorticoid receptor (GR) and other steroid hormone receptors (mineral corticoid receptor (MR), progesterone receptor (PR) and androgen receptor (AR)) is examined with the aid of recombinantly produced receptors. Cytosol preparations of Sf9 cells, which had been infected with recombinant baculoviruses, which code for the GR, are used for the binding studies. In comparison to reference substance [^3H]-dexamethasone, the substances show a high to very high affinity to GR.

For assay [3], the target named is T2, mineral corticoid receptor (MR) (Homo sapiens, UniProt P08235).
T2 construct: made in house
T2 sequence (P08235 1-984): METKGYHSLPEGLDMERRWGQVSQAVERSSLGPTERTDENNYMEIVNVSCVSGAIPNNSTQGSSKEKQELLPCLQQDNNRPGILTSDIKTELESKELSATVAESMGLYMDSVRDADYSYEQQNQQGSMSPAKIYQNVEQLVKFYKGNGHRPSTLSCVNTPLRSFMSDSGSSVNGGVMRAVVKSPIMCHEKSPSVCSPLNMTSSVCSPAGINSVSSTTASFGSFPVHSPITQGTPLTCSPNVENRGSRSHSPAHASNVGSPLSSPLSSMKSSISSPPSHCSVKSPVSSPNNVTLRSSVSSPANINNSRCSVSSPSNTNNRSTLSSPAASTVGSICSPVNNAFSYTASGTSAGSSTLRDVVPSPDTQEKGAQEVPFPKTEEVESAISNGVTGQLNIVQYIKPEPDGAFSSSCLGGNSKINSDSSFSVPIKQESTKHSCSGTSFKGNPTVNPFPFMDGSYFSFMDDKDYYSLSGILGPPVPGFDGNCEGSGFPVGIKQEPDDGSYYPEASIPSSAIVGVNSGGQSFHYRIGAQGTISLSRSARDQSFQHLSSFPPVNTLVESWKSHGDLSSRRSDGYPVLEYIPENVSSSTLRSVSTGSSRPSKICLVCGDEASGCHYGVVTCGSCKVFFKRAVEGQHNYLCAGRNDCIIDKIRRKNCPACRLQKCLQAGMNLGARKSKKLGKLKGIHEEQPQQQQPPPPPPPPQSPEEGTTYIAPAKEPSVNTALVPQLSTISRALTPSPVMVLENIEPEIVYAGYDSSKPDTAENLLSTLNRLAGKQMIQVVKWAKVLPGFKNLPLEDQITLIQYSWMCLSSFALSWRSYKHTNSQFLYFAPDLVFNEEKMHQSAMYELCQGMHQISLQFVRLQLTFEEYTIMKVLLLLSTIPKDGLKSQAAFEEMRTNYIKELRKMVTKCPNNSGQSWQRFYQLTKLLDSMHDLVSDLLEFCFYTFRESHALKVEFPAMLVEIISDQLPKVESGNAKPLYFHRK
Put plainly: Binding to recombinantly produced mineral corticoid receptor.
From the text: as §1

Assay [4] deals with T3, progesterone receptor (PR) (Homo sapiens, UniProt P06401).
T3 construct: made in house
T3 sequence (P06401 1-933): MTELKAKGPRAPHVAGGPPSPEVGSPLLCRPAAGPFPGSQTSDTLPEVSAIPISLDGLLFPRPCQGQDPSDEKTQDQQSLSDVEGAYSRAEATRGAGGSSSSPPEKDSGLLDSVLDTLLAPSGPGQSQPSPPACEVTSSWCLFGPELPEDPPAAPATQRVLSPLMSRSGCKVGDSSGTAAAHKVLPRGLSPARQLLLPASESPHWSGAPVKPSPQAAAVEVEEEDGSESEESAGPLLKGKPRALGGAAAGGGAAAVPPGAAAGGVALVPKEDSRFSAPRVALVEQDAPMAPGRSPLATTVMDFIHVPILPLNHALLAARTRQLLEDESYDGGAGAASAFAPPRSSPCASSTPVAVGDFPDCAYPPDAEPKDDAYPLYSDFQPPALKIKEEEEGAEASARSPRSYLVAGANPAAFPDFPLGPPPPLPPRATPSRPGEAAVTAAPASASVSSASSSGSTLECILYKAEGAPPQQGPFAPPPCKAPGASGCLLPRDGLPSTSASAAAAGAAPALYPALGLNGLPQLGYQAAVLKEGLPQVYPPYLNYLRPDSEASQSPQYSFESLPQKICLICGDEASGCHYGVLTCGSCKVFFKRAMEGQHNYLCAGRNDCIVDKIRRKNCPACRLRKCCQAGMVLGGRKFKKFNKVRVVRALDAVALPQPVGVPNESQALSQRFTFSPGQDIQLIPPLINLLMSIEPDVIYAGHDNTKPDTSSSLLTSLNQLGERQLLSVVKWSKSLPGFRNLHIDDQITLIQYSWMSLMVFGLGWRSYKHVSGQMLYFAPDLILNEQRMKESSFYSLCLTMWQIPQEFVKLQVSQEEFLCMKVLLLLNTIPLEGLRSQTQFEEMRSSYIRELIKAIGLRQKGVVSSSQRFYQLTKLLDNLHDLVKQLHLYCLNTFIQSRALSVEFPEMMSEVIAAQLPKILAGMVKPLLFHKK
Briefly: Binding to recombinantly produced progesterone receptor.
From the text: as §1

Assay [5] deals with T4, androgen receptor (AR) (Homo sapiens, UniProt P10275).
T4 construct: made in house
T4 sequence (P10275 1-920): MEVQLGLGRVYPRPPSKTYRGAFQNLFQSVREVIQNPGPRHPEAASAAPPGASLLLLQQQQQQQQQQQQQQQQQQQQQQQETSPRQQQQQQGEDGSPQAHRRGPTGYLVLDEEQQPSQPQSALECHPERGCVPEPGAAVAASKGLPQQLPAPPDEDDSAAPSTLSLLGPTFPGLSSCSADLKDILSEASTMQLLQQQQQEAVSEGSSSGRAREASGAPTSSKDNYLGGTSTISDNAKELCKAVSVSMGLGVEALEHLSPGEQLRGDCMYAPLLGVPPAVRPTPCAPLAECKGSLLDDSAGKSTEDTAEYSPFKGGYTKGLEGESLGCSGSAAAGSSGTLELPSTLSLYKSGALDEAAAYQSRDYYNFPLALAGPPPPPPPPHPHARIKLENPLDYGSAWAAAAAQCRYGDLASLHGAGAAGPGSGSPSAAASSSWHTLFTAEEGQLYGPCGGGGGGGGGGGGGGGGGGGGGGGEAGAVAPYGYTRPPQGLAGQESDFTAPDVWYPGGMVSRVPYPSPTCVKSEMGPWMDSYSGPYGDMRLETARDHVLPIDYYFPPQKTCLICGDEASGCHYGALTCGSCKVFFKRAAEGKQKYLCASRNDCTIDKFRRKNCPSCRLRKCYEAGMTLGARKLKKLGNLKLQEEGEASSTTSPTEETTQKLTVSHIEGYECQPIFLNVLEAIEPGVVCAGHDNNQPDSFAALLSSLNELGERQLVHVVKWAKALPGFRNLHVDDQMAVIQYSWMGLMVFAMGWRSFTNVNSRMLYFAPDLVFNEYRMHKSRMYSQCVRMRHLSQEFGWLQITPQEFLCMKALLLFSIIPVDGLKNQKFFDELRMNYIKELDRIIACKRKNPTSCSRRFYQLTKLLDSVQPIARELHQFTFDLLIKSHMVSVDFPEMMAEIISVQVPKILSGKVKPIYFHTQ
Put plainly: Binding to recombinantly produced androgen receptor.
From the text: as §1

Assay [6] deals with ER. Briefly: Binding to ER (steroid receptor selectivity profile).

The term IC50 denotes the point on the concentration scale where inhibition reaches its midpoint. Consider `COc1c(C(C)C)ccc2c1C(C)(C)CC(O)(C(F)(F)F)C2Nc1cccc2c1ccc(=O)n2-c1ccc(F)nc1` (stereo not shown) [Example 1, 5-{[2-Hydroxy-6-isopropyl-5-methoxy-4,4-dimethyl-2-(trifluoromethyl)-1,2,3,4-tetrahydronaphthalene-1-yl]amino}-1-(6-fluoropyridine-3-yl)-1H-quinoline-2-one], for which the IC50 in assay [1] (LPS-triggered IL-8 secretion, read-out: IC50(IL8)) worked out at 30 nM. In addition, the Emax in assay [1] (efficacy of IL-8 inhibition, LPS, read-out: eff. relative to dexamethasone) stood at 84.1%.

As to `CC(C)c1ccc2c(c1O)C(C)(C)CC(O)(C(F)(F)F)C2Nc1cccc2c1ccc(=O)n2-c1ccc(F)nc1` (stereo not shown) [Example 2, 5-{[2,5-Dihydroxy-6-isopropyl-4,4-dimethyl-2-(trifluoromethyl)-1,2,3,4-tetrahydronaphthalene-1-yl]amino}-1-(6-fluoropyridine-3-yl)-1H-quinoline-2-one], the IC50 is 32 nM in assay [2]; over 1000 nM in assay [3]; over 1000 nM in assay [4]; over 1000 nM in assay [5]; over 1000 nM in assay [6].
